Assay results taken from publication doi:10.1101/2024.08.13.607785v1 (biorxiv, 2024).

Columns and labels:
Design in all cases: species or system mixed lysate of K562, MV4-11, THP-1, NCI-H1155
Conditions in all cases: DIA-MS residual binding; binder
[1] = target: Ephrin type-A receptor 5 ; EPHA5 ; P54756 (Homo sapiens, UniProt P54756)
[2] = target: Peripheral plasma membrane protein CASK ; CASK ; O14936 (Homo sapiens, UniProt O14936)
[3] = target: Serine/threonine-protein kinase SIK2 ; SIK2 ; Q9H0K1 (Homo sapiens, UniProt Q9H0K1)
Chain of Serine/threonine-protein kinase SIK2 ; SIK2 ; Q9H0K1 (Q9H0K1 whole entry, one chain of several): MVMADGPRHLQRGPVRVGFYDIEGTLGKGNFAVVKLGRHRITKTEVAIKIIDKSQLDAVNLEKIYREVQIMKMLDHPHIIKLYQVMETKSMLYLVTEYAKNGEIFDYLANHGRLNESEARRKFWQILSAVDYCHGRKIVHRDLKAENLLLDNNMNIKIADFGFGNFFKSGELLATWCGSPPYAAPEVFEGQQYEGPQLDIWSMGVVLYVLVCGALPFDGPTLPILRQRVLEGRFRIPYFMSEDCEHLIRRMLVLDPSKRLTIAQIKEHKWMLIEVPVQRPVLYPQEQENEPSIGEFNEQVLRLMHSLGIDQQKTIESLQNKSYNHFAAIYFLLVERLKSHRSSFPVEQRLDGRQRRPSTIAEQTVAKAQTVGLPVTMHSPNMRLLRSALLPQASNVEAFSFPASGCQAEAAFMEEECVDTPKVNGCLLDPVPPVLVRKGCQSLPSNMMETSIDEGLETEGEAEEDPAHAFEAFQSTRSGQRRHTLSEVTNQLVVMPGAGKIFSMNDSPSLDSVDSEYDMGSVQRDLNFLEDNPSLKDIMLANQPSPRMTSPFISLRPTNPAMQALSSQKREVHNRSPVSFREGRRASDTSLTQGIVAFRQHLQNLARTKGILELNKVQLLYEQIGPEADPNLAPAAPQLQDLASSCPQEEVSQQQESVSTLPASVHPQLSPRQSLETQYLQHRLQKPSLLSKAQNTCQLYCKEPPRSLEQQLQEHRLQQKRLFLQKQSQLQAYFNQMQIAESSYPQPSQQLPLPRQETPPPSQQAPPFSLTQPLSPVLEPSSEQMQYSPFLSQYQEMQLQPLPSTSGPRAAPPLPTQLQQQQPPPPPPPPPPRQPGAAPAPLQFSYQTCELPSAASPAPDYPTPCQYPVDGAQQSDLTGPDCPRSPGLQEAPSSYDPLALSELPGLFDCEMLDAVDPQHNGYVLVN

[4] = target: Tyrosine-protein kinase Fyn ; FYN-2 ; P06241 (Homo sapiens, UniProt P06241)
Chain of Tyrosine-protein kinase Fyn ; FYN-2 ; P06241 (P06241 whole entry): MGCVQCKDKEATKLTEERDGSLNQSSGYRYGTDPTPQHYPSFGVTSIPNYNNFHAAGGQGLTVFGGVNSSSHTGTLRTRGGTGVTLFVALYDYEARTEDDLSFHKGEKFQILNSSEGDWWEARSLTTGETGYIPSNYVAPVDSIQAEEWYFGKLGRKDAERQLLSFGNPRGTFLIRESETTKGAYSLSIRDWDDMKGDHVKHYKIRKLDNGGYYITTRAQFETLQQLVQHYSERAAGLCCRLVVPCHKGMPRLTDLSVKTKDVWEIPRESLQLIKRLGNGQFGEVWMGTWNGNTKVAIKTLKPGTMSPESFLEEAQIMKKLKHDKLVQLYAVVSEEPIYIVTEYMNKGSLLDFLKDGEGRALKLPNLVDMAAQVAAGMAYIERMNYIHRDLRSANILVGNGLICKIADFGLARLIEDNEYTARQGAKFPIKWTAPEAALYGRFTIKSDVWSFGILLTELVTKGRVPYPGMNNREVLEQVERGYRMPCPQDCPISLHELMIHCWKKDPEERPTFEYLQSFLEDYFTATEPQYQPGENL

[5] = target: Activin receptor type-1B ; ACVR1B ; P36896 (Homo sapiens, UniProt P36896)
Chain of Activin receptor type-1B ; ACVR1B ; P36896 (P36896 whole entry): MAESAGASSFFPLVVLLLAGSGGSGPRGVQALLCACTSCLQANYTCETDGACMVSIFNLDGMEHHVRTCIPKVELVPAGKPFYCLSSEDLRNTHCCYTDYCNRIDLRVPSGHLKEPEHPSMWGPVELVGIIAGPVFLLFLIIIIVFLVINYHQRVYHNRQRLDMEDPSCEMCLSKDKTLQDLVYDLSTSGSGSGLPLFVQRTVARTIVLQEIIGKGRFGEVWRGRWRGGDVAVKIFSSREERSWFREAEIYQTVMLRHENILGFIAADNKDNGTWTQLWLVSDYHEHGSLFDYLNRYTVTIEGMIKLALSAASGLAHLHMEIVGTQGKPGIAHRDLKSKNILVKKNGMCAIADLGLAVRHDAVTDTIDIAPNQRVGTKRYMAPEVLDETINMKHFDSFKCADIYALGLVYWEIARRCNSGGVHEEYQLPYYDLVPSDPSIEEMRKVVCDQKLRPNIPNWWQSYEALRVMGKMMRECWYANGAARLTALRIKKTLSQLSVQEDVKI

Chain of Ephrin type-A receptor 5 ; EPHA5 ; P54756 (P54756 whole entry): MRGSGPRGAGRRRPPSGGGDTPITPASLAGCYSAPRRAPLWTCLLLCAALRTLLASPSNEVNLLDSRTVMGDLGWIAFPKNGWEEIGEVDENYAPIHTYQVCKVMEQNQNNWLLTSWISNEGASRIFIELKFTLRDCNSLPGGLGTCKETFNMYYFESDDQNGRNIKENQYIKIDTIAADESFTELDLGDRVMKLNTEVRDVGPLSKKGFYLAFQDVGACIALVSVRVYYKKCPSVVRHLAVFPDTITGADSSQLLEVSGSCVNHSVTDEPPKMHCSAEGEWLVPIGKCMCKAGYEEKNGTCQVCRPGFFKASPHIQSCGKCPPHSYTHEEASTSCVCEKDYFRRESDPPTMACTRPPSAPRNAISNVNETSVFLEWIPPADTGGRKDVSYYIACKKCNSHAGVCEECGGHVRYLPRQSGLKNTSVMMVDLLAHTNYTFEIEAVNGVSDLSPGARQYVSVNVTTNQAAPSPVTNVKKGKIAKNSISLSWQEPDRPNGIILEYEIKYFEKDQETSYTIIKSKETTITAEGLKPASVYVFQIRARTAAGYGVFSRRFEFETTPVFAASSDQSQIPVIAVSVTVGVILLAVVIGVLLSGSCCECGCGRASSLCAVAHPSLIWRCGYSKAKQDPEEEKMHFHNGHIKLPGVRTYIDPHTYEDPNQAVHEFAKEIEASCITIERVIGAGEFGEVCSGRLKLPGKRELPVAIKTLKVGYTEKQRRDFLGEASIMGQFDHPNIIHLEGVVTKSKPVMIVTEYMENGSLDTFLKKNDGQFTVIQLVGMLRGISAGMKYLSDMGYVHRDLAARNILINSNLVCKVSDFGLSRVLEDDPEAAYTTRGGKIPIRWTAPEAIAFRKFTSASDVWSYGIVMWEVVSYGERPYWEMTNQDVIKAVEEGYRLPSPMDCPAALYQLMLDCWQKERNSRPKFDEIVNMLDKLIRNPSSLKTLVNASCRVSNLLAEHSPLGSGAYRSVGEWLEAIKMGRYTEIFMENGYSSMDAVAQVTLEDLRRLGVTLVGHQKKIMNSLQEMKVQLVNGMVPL
Chain of Peripheral plasma membrane protein CASK ; CASK ; O14936 (O14936 whole entry): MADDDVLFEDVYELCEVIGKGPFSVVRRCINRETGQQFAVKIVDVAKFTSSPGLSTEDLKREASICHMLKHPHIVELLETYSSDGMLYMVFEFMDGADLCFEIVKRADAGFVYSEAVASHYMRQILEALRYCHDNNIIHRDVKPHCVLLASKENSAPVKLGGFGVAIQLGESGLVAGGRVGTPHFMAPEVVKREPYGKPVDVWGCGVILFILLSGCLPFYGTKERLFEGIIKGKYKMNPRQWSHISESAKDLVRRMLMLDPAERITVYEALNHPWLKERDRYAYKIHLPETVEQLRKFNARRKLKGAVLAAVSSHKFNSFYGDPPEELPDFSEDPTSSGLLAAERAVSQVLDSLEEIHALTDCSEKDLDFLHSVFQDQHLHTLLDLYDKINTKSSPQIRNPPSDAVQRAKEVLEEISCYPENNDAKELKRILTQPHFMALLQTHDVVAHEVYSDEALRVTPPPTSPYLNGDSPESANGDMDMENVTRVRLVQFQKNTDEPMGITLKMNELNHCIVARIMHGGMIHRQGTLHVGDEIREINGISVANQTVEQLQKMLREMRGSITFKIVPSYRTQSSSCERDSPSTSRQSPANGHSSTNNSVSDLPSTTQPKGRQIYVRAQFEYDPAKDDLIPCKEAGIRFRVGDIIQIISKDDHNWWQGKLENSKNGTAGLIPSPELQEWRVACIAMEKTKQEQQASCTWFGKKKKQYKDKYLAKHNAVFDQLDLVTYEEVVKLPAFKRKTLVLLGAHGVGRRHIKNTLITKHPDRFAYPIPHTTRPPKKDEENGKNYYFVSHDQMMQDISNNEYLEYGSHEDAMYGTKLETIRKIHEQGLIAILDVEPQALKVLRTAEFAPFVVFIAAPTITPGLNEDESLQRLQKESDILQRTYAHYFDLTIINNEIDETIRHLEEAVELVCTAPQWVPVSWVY

DIA-MS / % Intensity (30 µM/DMSO) [1]: 0.4604%
DIA-MS / % Intensity (30 µM/DMSO) [2]: 21.6%
DIA-MS / % Intensity (30 µM/DMSO) [3]: 2.882%
DIA-MS / % Intensity (30 µM/DMSO) [4]: 2.543%
DIA-MS / % Intensity (30 µM/DMSO) [5]: 38.22%
SMILES: Cc1nc(Nc2ncc(C(=O)Nc3c(C)cccc3Cl)s2)cc(N2CCN(CCO)CC2)n1 [dasatinib]
